Experimental data reported in patent US10905654B2, “Compositions of bakuchiol and methods of making the same” (Unigen, Inc., priority 2005, dated 2021).

Tests used:
[1] = target: COX-1 (Homo sapiens, UniProt P23219); assay: COX-1 inhibition, peroxidase activity assay; assay type: biochemical; conditions: 99% bakuchiol sample, IC50 normalized to enzyme units
Excerpt: In order to screen for compounds that inhibited COX-1 and COX-2 activity, a high throughput, in vitro assay was developed that utilized the inhibition of the peroxidase activity of both enzymes. (Needleman et al. (1986) Annu Rev Biochem. 55:69). Briefly, the composition or compound being examined was titrated against a fixed amount of COX-1 and COX-2 enzymes. A cleavable, peroxide chromophore was included in the assay to visualize the peroxidase activity of each enzyme in presence of arachidonic acid as a cofactor. Typically, assays were performed in a 96-well format. Each inhibitor, taken from a 10 mg/mL stock solution in 100% DMSO, was tested in triplicate at room temperature using the following range of concentrations: 0, 0.1, 1, 5, 10, 20, 50, 100, and 500 μg/mL. To each well, 150 μL of 100 mM Tris-HCl, pH 7.5 was added along with 10 μL of 22 μM Hematin diluted in tris buffer, 10 μL of inhibitor diluted in DMSO and 25 units of either the COX-1 or COX-2 enzyme. […] The plate was shaken for 10 seconds and then incubated 5 minutes before reading the absorbance at 570 nm. The inhibitor concentration vs. % inhibition was plotted and the IC50 determined by taking the half-maximal point along the isotherm and intersecting the concentration on the X-axis. […]

[2] = target: T1, human 5-lipoxygenase (5-LO or 5-LOX) (Homo sapiens, UniProt P09917); assay: Lipoxygenase Inhibition Assay (LTB4 formation, EIA); assay type: biochemical; conditions: 99% bakuchiol; 5-LOX from human PBML cells, arachidonic acid substrate
T1 construct: 5-LOX was isolated from human PBML cells; endogenous in cells; host or cells: human PBML cells (peripheral blood mononuclear leukocytes)
T1 sequence (P09917 1-674): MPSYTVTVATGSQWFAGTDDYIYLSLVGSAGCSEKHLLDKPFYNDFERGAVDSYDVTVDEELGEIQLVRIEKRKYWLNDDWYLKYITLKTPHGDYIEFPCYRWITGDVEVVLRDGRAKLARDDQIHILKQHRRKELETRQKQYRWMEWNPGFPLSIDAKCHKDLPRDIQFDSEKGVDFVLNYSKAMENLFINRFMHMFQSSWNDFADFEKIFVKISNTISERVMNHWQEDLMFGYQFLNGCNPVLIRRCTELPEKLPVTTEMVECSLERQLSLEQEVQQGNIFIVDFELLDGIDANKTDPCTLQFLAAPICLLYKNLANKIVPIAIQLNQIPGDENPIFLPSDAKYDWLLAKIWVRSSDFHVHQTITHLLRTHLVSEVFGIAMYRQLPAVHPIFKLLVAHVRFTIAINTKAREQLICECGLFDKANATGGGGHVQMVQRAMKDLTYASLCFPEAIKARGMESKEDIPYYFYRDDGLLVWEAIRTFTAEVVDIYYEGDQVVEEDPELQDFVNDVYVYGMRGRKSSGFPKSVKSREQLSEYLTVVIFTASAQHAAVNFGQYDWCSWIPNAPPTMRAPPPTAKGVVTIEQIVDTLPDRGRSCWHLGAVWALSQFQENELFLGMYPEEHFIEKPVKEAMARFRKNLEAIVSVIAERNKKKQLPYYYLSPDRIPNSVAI
Procedure: As noted above, one of the most important pathways involved in the inflammatory response is produced by non-heme, iron-containing lipoxygenases (5-LOX, 12-LOX, and 15-LOX), which catalyze the oxidation of fatty acids such as AA to produce the hydroperoxides 5-, 12- and 15-HPETE, which are then converted to leukotrienes. A Lipoxygenase Inhibition Assay was carried out using a published method (Carter et al. (1991) J. Pharmacol. Exp. Ther. 256(3):929-937, Safayhi et al. (2000) Planta Medica. 66:110-113). 5-LOX was isolated from human PBML cells and arachidonic acid was utilized as a substrate. The test article and positive control were dissolved in 1% DMSO. HBSS (Hank's balanced salt solution) was used as incubation buffer. Pre-incubation time was 15 minutes at 37° C., followed by 15 min. incubation at the same temperature. This assay detects the formation of LTB4 with EIA quantification. Highly pure bakuchiol (99% bakuchiol, #MH-258-12-08) was tested in duplicate at concentrations of 10 μM, 1 μM, 0.1 μM, and 10 nM relative to a positive control-NDGA at five concentrations. The dose response curve is illustrated in the FIG. 6.

[3] = system: Propionibacterium acnes (ATCC 6919); assay: Antimicrobial activity, turbidity; assay type: cell-based; conditions: 99% pure sample, tested at 0.03-100 μg/mL, 1 day
Procedure: (§1) The anti-microbial activity of a highly pure bakuchiol sample (99% pure; #MH-258-12-08) was evaluated using published methods (Modugno et al. (1994) Antimicrobial Agents & Chemotherapy 38:2362-2368; Misiek et al. (1973) Antimicrobial Agents & Chemotherapy 3:40-48). Briefly, Staphylococcus epidermidis (Gram Positive. ATCC 12228) was cultured for 20 hours at 37° C. in Mueller-Hinton Broth medium. Propionibacterium acnes (ATCC 6919) was cultured for 2 days at 37° C. in Reinforced Clostridial medium. The test article and positive control were dissolved in 1% DMSO with an incubation volume of 1 mL. The time of assessment was 1 day. Measurement of turbidity was used as the method of quantification. A highly pure bakuchiol sample (99%; #MH-258-12-08) was tested in duplicate at concentrations of 100 μg/mL, 30 μg/mL, 10 μg/mL, 3 μg/mL, 1 μg/mL, 0.3 μg/mL, 0.1 μg/mL and 0.03 μg/mL relative to positive controls-gentamicin at 0.1 μg/mL for Staphylococcus epidermidis and ampicillin at 0.1 μg/mL for Propionibacterium acnes, respectively.

[4] = system: Staphylococcus epidermidis (Gram Positive, ATCC 12228); assay: Antimicrobial activity, turbidity; assay type: cell-based; conditions: 99% pure sample, tested at 0.03-100 μg/mL, 1 day
Procedure: as §1

[5] = system: Trichophyton mentagrophytes (ATCC 9533); assay: Antimicrobial activity; assay type: cell-based; conditions: 99% pure sample; tested at 0.03-100 μg/mL
[6] = system: Epidermophyton floccosum (ATCC 18397); assay: Antimicrobial activity; assay type: cell-based; conditions: 99% pure sample, tested at 0.03-100 μg/mL
[7] = system: Microsporum canis (ATCC 36299); assay: Antimicrobial activity; assay type: cell-based; conditions: 99% pure sample, tested at 0.03-100 μg/mL
[8] = system: Pityrosporum ovale (ATCC 38593); assay: Antimicrobial activity; assay type: cell-based; conditions: 99% pure sample, tested at 0.03-100 μg/mL
[9] = Acute toxicity, 14-day study in mice; assay type: in vivo, female ICR mice
Procedure: […] Forty female ICR mice (Harlan) aged 4-5 weeks old were used for the 14-day study. Mice were administered […] of the acute dose daily, approximately 2 g/kg by weight per test article per day. The first 10 mice received the composition containing 20.7% bakuchiol, while the second group of 10 mice received a composition containing 99% bakuchiol. The UP256 composition was suspended in water and administered through a syringe. Twenty mice were administered water, as the control group. The weights of all mice were measured, including baseline, 3 mid points, and an endpoint. […] Any abnormal health conditions or behavior was recorded over the two-week period. A necropsy of all mice was completed on day 14 and blood from all groups was collected for a complete blood screen. Two mice picked randomly from each of groups also had kidney and liver tissues removed for Histopathology. All blood work and pathology work was completed through Antech Diagnostics.

[10] = target: T2, PTPIB (Homo sapiens, UniProt P18031); conditions: Kim et al. 2005; cited from earlier work
T2 sequence (P18031 1-435): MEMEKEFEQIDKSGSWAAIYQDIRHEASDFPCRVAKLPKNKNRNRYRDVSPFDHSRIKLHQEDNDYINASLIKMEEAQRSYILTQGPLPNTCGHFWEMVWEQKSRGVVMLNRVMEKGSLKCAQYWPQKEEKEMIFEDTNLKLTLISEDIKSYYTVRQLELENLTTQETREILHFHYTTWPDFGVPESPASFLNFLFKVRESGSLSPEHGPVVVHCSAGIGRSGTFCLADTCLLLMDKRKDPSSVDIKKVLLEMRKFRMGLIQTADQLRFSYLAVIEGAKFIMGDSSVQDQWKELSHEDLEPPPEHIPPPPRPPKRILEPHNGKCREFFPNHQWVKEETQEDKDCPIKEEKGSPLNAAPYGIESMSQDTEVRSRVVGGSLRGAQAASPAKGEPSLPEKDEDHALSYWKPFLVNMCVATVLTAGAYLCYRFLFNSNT

[11] = physchem
[12] = system: COX-1 versus COX-2; conditions: COX-1 selective inhibitor; cited from earlier work
[13] = 20.7% and 99% bakuchiol samples, approximately 2 g/kg per day, 14 days
[14] = UP256 at concentrations of 30% and 70%, oral daily 2 g/kg for 14 days
[15] = day 14, 20.7% and 99% bakuchiol samples, approximately 2 g/kg per day
[16] = two mice per group, approximately 2 g/kg per day, 14 days

COX-1, sequence (P23219 24-599): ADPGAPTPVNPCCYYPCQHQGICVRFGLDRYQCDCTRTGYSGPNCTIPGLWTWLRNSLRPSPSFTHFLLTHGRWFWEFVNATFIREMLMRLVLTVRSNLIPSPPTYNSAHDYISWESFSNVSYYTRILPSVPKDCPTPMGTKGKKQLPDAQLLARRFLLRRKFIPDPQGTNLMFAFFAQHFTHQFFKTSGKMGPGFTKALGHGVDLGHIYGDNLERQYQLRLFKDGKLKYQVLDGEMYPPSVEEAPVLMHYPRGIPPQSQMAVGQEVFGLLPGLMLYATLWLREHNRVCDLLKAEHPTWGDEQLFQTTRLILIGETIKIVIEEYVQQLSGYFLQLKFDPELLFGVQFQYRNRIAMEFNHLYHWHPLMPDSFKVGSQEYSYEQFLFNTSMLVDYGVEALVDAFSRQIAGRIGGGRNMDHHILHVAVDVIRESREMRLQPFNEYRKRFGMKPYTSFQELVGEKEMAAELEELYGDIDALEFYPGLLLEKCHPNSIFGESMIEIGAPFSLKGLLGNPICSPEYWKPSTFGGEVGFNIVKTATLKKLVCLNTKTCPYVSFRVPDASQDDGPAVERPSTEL

C=C[C@@](C)(/C=C/c1ccc(O)cc1)CCC=C(C)C [UP256, bakuchiol]
IC50 [1]: 2.34 µM | IC50 [2]: 3.41 µM | minimum effective concentration (significant inhibition) [3]: 1 µg/mL | minimum effective concentration (significant inhibition) [4]: 1 µg/mL | concentration of moderate inhibition [5]: 30 µg/mL | inhibition [6]: No inhibition | inhibition ([6]; listed as bakuchiol): no inhibition | inhibition [7]: No inhibition | inhibition ([7]; listed as bakuchiol): no inhibition | inhibition [8]: No inhibition | inhibition ([8]; listed as bakuchiol): no inhibition | average weight [9, 13]: continued to increase | food/water consumption [9, 13]: remained the same | significant difference in behavior versus control mice [9, 13]: Aggression towards the investigator (i.e. biting) and towards each other (i.e. fighting in cage) | adverse effects, fourteen-day study [9, 14]: No adverse effects | toxicity in major organs tested [9, 14]: no toxicity | adverse effects, fourteen-day study ([9]; both purity levels (20% and 99% purity), approximately 2 g/kg per day): No adverse effects | blood work [9, 15]: normal relative to the controls | necropsy [9, 15]: no gross abnormalities or changes in any organ | histopathology, kidney [9, 16]: significant changes were not present | histopathology, liver hepatocyte nuclei [9, 16]: within normal limits | IC50 [10]: 20.8 µM | logP [11]: 6.13

CC(=O)Oc1ccccc1C(=O)O [aspirin]
effectiveness against COX-1 versus COX-2 [12]: more than 150 times
